Reference: patent US20140255968A1, “METHOD FOR FABRICATING A PATTERNED SUBSTRATE FOR A CELL CULTURE, A PATTERNED SUBSTRATE FOR CELL CULTURE, AND A CELL CHIP” (RESEARCH & BUSINESS FOUNDATION SUNGKYUNKWAN UNIVERSITY, priority 2013, published 2014)
“Also recorded” adds a separate entry of the source. Like-named read-outs stand apart in the source and are kept apart here.

Tested on: bovine aortic endothelial cells (BAECs)
Test: Angiogenesis assay on patterned cell chip
Assay type: cell-based
Description: In an angiogenesis assay using the fabricated substrate, bovine aortic endothelial cells (BAECs) were used. To prevent contamination, the substrate fabricated in Example 1-2 was placed in a Petri dish and irradiated with UV light for 16 hours prior to the test. BAEC cells were seeded in 2 ml of complete medium (low glucose DMEM (Dulbecco's Modified Eagle's Medium, WELGENE) containing 1× penicillin/streptomycine (WELGENE) and 20% fetal bovine serum (FBS, WELGENE)) at a cell concentration of 2.5×10^5 cells/ml, and then cultured in a 5% CO2 incubator at 37° C. for 6 hours. Next, the complete medium was replaced with the following media. • untreated plate (normal control group): 10 ml of low-glucose DMEM containing 1× penicillin/streptomycin and 0.2% FBS; • LPS (lipopolysaccharide)-treated plate (negative control group): 10 ml of low-glucose DMEM containing 1× penicillin/streptomycin, 0.2% FBS and 100 ng/ml of LPS; or • VEGF (vascular endothelial growth factor)-treated plate (positive control group): 10 ml of low-glucose DMEM containing 1× penicillin/streptomycin, 0.2% FBS and 100 ng/ml of VEGF. To prevent cells on the substrate from being dried due to evaporation of the media in the incubator, the volume of the media was increased to 10 ml, and to more accurately confirm the effect of the positive control group (VEGF-treated plate), starvation basic medium having a decreased FBS (a kind of growth factor) concentration of 0.2% was used.

[1] = 100 ng/ml in low-glucose DMEM with 0.2% FBS, 18 hours, optical microscope

| Substance | angiogenesis on the patterned cell chip compared with the untreated case [1] | number of cells in the regions between cell adsorbing H2/He plasma treated areas, compared with untreated [1] | angiogenesis on the patterned cell chip compared with the untreated case | formation of tube-shaped blood vessels [1] |
| --- | --- | --- | --- | --- |
| lipopolysaccharide [LPS] | angiogenesis was inhibited | significant decrease in the number of cells; also recorded: smaller number of cells |  |  |
| vascular endothelial growth factor [VEGF] |  | proliferation of cells significantly increased; also recorded: significantly larger number of the cells | angiogenesis was induced and promoted | tube-shaped blood vessels were newly formed |
